In this assay the test system is ΔtreS (TreS-deficient M. tuberculosis). The format is cell-based, Mycobacterium tuberculosis.

This is an account of results in patent publication US20250205260A1, “ADJUNCTIVE TREATMENT OF MYCOBACTERIAL DISEASES” (UNIVERSITY OF SOUTHERN CALIFORNIA, priority 2022, published 2025).

Molecules are shown by their SMILES. In brackets after ≈: the same amount, converted by molar mass.

On to `NNC(=O)c1ccncc1` [INH, isoniazid], for which the “IC95 ΔtreS” value was found to be 0.12 µg/mL (≈ 0.875 µM).

Regarding `COc1nc2ccc(Br)cc2cc1[C@@H](c1ccccc1)[C@@](O)(CCN(C)C)c1cccc2ccccc12` [BDQ, bedaquiline], the “IC95 ΔtreS” value came out at 0.21 µg/mL (≈ 0.378 µM).
